Read-outs that look alike come from different tables or passages of the source.
Columns and labels:
[1] = tested on: Male Wistar rats; assay: Object recognition task model - scopolamine challenge; type: in vivo, rat; settings: 0.3 mg/kg, p.o., with scopolamine
Method: Object Recognition Task Model—Scopolamine Challenge
(§1) The cognition enhancing properties of compounds of this invention were estimated by using this model.
(§2) Male Wistar rats (8-10 weeks old) were used as experimental animals. Four animals were housed in each cage. Animals were kept on 20% food deprivation from a day prior to experimentation. Water was provided ad libitum throughout the experiment. Animals were maintained on a 12 hours light/dark cycle in temperature and humidity controlled room. The experiment was carried out in an open field made up of acrylic. Rats were habituated to individual arenas (open field) for 1 hour in the absence of any objects on day 1.
Rats received vehicle or vehicle and scopolamine or compound of the formula (I) and scopolamine, before the familiar (T1). During the familiarization phase, (T1), the rats were placed individually in the arena for 3 minutes, in which two identical objects (a1 and a2) were positioned 10 cm from the wall. 3 minutes after T1, trial for memory test was performed. The same rats were placed in the same arena as they were placed in T1 trial. During the choice phase (T2) rats were allowed to explore the arena for 3 minutes in presence of a copy of familiar object (a3) and one novel object (b). During the T1 and T2 trial, explorations of each object (defined as sniffing, licking, chewing or having moving vibrissae whilst directing the nose towards the object at a distance of less than 1 cm) were recorded using stopwatch.
(§3) T1 is the total time spent exploring the familiar objects (a1+a2).
(§4) T2 is the total time spent exploring the familiar object and novel object (a3+b). Discriminative index=Time spent with novel object/(time spent with novel and familiar object).

[2] = tested on: Male Wistar rats; assay: Object recognition task model (time induced memory deficit); type: in vivo, rat; settings: p.o.; for Exploration time mean ± S.E.M, Familiar object / Exploration time mean ± S.E.M, Novel object: choice trial 24 hours after T1
Method: Object Recognition Task Model
as §1, §2
One group of 12 rats received vehicle and another set of animals received test compounds or test compounds and Donepezil, before the familiar (T1) and choice (T2) trials. During the familiarization phase, (T1), the rats were placed individually in the arena for 3 minutes, in which two identical objects (a1 and a2) were positioned 10 cm from the wall. 24 hours after T1, trial for long-term memory test was performed. The same rats were placed in the same arena as they were placed in T1 trial. During the choice phase (T2) rats were allowed to explore the arena for 3 minutes in presence of a copy of familiar object (a3) and one novel object (b). During the T1 and T2 trial, explorations of each object (defined as sniffing, licking, chewing or having moving vibrissae whilst directing the nose towards the object at a distance of less than 1 cm) were recorded using stopwatch.
as §3, §4
The object recognition test was performed as described in Behavioural Brain Research, 1988, 31, 47-59.

[3] = Rodent brain penetration study; type: in vivo; settings: rat, oral, 3 mg/kg, p.o., male Wistar rats, read-out: Single dose Rat Brain Penetration (Cb/Cp)
Method: Rodent Brain Penetration Study
Male Wistar rats (260±40 grams) were used as experimental animals. Three animals were housed in each cage. Animals were given water and food ad libitum throughout the experiment and maintained on a 12 hours light/dark cycle.
Brain penetration was determined in discrete manner in rats. One day prior to dosing day, male Wistar rats were acclimatized and randomly grouped according to their weight. At each time point (0.50, 1 and 2 hours) n=3 animals were used.
The test compounds were suitably preformulated and administered orally at (free base equivalent) 3 mg/kg. Blood samples were removed via cardiac puncture by using isoflurane anesthesia. The animals were sacrificed to collect brain tissue. Plasma was separated and brain samples were homogenized and stored frozen at −20° C. until analysis. The concentrations of the test compounds in plasma and brain were determined using LC-MS/MS method.
The test compounds were quantified in plasma and brain homogenate by qualified LC-MS/MS method using suitable extraction technique. The test compounds were quantified in the calibration range of 1-500 ng/mL in plasma and brain homogenate. Study samples were analyzed using calibration samples in the batch and quality control samples spread across the batch. Extent of brain-plasma ratio was calculated (Cb/Cp).

[4] = Rodent pharmacokinetic study; type: in vivo, rat; settings: male Wistar rats; for clearance / half-life / Vd / Cmax / Tmax / bioavailability: rat, plasma; for Vd: read-out: Vz; for bioavailability: 3 mg/kg oral vs 1 mg/kg i.v.
Method: Rodent Pharmacokinetic Study
Male Wistar rats (260±50 grams) were used as experimental animals. Animals were housed individually in polypropylene cage. Two days prior to study, male Wistar rats were anesthetized with isoflurane for surgical placement of jugular vein catheter. Rats were randomly divided for oral (3 mg/kg) and intravenous (1 mg/kg) dosing (n=3/group) and fasted overnight before oral dosing (p.o.). However, rats allocated to intravenous (i.v.) dosing food and water was provided ad libitum.
At pre-determined point, blood was collected through jugular vein and replenished with an equivalent volume of normal saline. Collected blood was transferred into a labeled eppendorf tube containing 10 μL of heparin as an anticoagulant. Typically blood samples were collected at following time points: 0.08, 0.25, 0.5, 1, 2, 4, 6, 8, and 24 hours post dose. Blood was centrifuged at 4000 rpm for 10 minutes. Plasma was separated and stored frozen at −80° C. until analysis. The concentrations of the test compounds were quantified in plasma by qualified LC-MS/MS method using suitable extraction technique. The test compounds were quantified in the calibration range around 1-1000 ng/mL in plasma. Study samples were analyzed using calibration samples in the batch and quality control samples spread across the batch.
Pharmacokinetic parameters Cmax, Tmax, AUCt, T1/2, clearance, Vz and bioavailability were calculated by non-compartmental model using standard non-compartmental model by using Phoenix WinNonlin 6.0.2 or 6.0.3 version Software package.

[5] = target: recombinant human Muscarinic M1 receptor (Homo sapiens (Human), UniProt P11229); assay: Allosteric potency EC50, CHO cells with pCRE-Luc reporter, in presence of EC20 of acetylcholine; type: cell-based; settings: 4 hours
recombinant human Muscarinic M1 receptor, sequence (P11229 whole entry): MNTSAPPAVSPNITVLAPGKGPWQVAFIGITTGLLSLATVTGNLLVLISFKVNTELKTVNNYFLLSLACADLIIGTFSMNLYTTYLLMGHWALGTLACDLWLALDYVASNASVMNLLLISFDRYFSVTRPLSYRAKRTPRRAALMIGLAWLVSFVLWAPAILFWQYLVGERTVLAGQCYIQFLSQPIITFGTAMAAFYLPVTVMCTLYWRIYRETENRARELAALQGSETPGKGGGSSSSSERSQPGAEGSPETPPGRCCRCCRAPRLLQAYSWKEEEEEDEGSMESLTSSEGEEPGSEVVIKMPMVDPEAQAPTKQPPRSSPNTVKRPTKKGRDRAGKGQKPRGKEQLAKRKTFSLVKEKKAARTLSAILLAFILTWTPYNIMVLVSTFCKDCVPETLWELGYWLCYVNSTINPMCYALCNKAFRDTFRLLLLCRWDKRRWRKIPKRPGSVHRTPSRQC
Procedure, shortened: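 Stable CHO cells carrying human M1 receptor and a pCRE-Luc reporter, serum-starved overnight, then exposed to rising compound concentrations plus EC20 acetylcholine in OptiMEM for 4 h at 37 °C. Luciferase read after lysis. EC50 is the concentration giving 50% luciferase stimulation with EC20 acetylcholine present.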

[6] = cited from earlier work
[7] = target: M1 muscarinic receptor (Homo sapiens (Human), UniProt P11229); settings: cited from earlier work
[8] = cited from earlier work; remark: listed apart in the source
[9] = choice trial 3 minutes after T1

Row | Kp [3] | AUC0-t ([4]; 1 mg/kg i.v. (bolus)) [ng·h/mL] | AUC0-t ([4]; 3 mg/kg oral (gavage)) [ng·h/mL] | clearance ([4]; iv, 1 mg/kg i.v. (bolus)) [mL/min/kg] | half-life ([4]; iv, 1 mg/kg i.v. (bolus)) [h] | Vd ([4]; iv, 1 mg/kg i.v. (bolus)) [L/kg] | Cmax ([4]; 3 mg/kg oral (gavage)) [ng/mL] | Tmax ([4]; 3 mg/kg oral (gavage)) [h] | half-life ([4]; 3 mg/kg oral (gavage)) [h] | bioavailability [4] [%] | EC50 [5] [nM] | Compound | Inference ([2]; 1 mg/kg) | Exploration time mean ± S.E.M, Familiar object ([2]; 1 mg/kg) [s] | Exploration time mean ± S.E.M, Novel object ([2]; 1 mg/kg) [s] | further results
1 | 0.65 ± 0.2 | 711 ± 137 | 1180 ± 245 | 24 ± 4 | 4.2 ± 2.2 | 8.3 ± 4.1 | 320 ± 68 | 1.33 ± 0.58 | 2.9 ± 1.3 | 55 ± 11 | 699 | COc1cccc(CN2C=C(C(=O)N[C@H]3CCCC[C@@H]3O)Oc3ccccc32)c1 [Example 9, N-(cis-1S, 2S-2-Hydroxycyclohexyl)-4-(3-methoxybenzyl)-4H-benzo[1,4]oxazine-2-carboxamide] | Active | 8.64 ± 0.82 | 18.55 ± 1.70 | 
2 | 0.25 ± 0.08 | 1490 ± 149 | 4270 ± 800 | 11 ± 1 | 1.7 ± 0.3 | 1.5 ± 0.1 | 992 ± 150 | 0.67 ± 0.29 | 2.7 ± 0.3 | 95 ± 18 | 369 | O=C(N[C@H]1CCCC[C@@H]1O)C1=CN(Cc2ccc(Cl)nc2)c2ccccc2O1 [Example 21, N-(cis-1S,2S-2-Hydroxycyclohexyl)-4-(2-chloropyridin-5-ylmethyl)-4H-benzo[1,4]oxazine-2-carboxamide] | Active | 9.18 ± 1.63 | 17.67 ± 2.89 | 
3 | 1.43 ± 0.01 | 415 ± 17 | 607 ± 62 | 40 ± 2 | 1.4 ± 0.1 | 4.7 ± 0.1 | 245 ± 27 | 0.58 ± 0.38 | 1.5 ± 0.3 | 49 ± 5 | 1430 | O=C(N[C@H]1CCCC[C@@H]1O)C1=CN(Cc2ccccc2)c2ccccc2O1 [Example 4, N-(cis-1S,2S-2-Hydroxycyclohexyl)-4-benzyl-4H-benzo[1,4]oxazine-2-carboxamide] |  |  |  | Inference ([2]; 10 mg/kg): Active; Exploration time mean ± S.E.M, Familiar object ([2]; 10 mg/kg): 7.43 ± 0.67 s; Exploration time mean ± S.E.M, Novel object ([2]; 10 mg/kg): 11.21 ± 1.26 s

The next lines start with the molecule.

Row | Compound | Kp [3] | AUC0-t ([4]; 1 mg/kg i.v. (bolus)) [ng·h/mL] | AUC0-t ([4]; 3 mg/kg oral (gavage)) [ng·h/mL] | clearance ([4]; iv, 1 mg/kg i.v. (bolus)) [mL/min/kg] | half-life ([4]; iv, 1 mg/kg i.v. (bolus)) [h] | Vd ([4]; iv, 1 mg/kg i.v. (bolus)) [L/kg] | Cmax ([4]; 3 mg/kg oral (gavage)) [ng/mL] | Tmax ([4]; 3 mg/kg oral (gavage)) [h] | half-life ([4]; 3 mg/kg oral (gavage)) [h] | bioavailability [4] [%] | EC50 [5] [nM] | Inference ([2]; 1 mg/kg) | Exploration time mean ± S.E.M, Familiar object ([2]; 1 mg/kg) [s] | Exploration time mean ± S.E.M, Novel object ([2]; 1 mg/kg) [s] | further results
4 | O=C(N[C@H]1CCCC[C@@H]1O)C1=CN(Cc2ccccc2F)c2ccccc2O1 [Example 1, N-(cis-1S, 2S-2-Hydroxycyclohexyl)-4-(2-fluorobenzyl)-4H-benzo[1,4]oxazine-2-carboxamide] | 1.18 ± 0.38 | 834 ± 101 | 989 ± 386 | 19 ± 2 | 2.3 ± 0.7 | 4 ± 1.4 | 419 ± 162 | 0.5 | 2.3 ± 1.1 | 40 ± 15 | 422 | Active | 10.93 ± 1.98 | 19.27 ± 2.94 | Inference [1]: Active; Exploration time mean ± S.E.M, Familiar object [1, 9]: 11.57 ± 1.51 s; Exploration time mean ± S.E.M, Novel object [1, 9]: 22.66 ± 2.90 s
5 | N#CC1(c2ccccn2)CCN(Cc2cc(C(=O)O)c(=O)n3ccccc23)CC1 [PQCA, 1-{[4-cyano-4-(pyridine-2-yl)piperidin-1-yl]methyl}-4-oxo-4H-quinolizine-3-carboxylic acid] |  |  |  |  |  |  |  |  |  |  |  |  |  |  | gastrointestinal side effects ([6]; at doses equal to or less than a fivefold margin from the minimum effective dose): no gastrointestinal side effects; efficacy in preclinical models of cognition ([6]; in vivo): efficacious; selectivity for M1 over the other muscarinic receptor sub types [7]: highly selective
6 | CCCCCCOc1nsnc1C1=CCCN(C)C1 [Xanomeline] |  |  |  |  |  |  |  |  |  |  |  |  |  |  | effects on cognition ([8]; clinical Alzheimer's disease trial): significant effects on cognition; gastrointestinal side effects ([8]; clinical trials): gastrointestinal side effects led to a high dropout rate
